# Patent US20240124417A1, “COMPOUNDS USEFUL AS IMMUNOMODULATORS” (Bristol-Myers Squibb Company, priority 2019, published 2024)
# Molecular target: T1, PD-1/PD-L1 (Homo sapiens, UniProt Q9NZQ7)
# T1 construct: TVMV protease site linker (C); made in house; host or cells: HEK293T cells
# Assay: PD-1/PD-L1 Homogenous Time-Resolved Fluorescence (HTRF) binding assay
# Details: PD-L1-His 10 nM, PD-1-Ig 20 nM
# Procedure, shortened: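 Time-resolved FRET read-out using Eu-cryptate anti-Ig (1 nM final) and APC anti-His (20 nM final). Tagged extracellular domains were used in BSA/Tween-20-supplemented dPBS, with compound pre-incubated 15 min with PD-L1-His (10 nM) before PD-1-Ig (20 nM) was added for 15 min. Other human pairs: PD-L2-His 5 nM with PD-1-Ig 20 nM; PD-L1-Ig 10 nM with CD80-His 100 nM.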
# T1 sequence (Q9NZQ7 18-239): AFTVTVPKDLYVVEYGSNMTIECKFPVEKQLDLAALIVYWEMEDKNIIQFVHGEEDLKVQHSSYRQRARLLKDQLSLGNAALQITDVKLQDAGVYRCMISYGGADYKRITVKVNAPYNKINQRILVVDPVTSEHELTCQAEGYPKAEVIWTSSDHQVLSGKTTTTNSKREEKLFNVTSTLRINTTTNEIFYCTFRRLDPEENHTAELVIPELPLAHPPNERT
row,SMILES,IC50 [nM]
1,"Cc1c(COc2cc(OCc3cncc(C#N)c3)c(CNCc3ncc[nH]3)cc2Cl)cccc1-c1cccc(OC2CCC(N3CCCC3)CC2)c1Cl (stereo not shown) [Example 2053, 5-((2-((((1H-imidazol-2-yl)methyl)amino)methyl)-4-chloro-5-((2′-chloro-2-methyl-3′-((4-(pyrrolidin-1-yl)cyclohexyl)oxy)-[1,1′-biphenyl]-3-yl)methoxy)phenoxy)methyl)nicotinonitrile]",2.9
2,"Cc1c(COc2cc(OCc3cncc(C#N)c3)c(CNCc3c[nH]cn3)cc2Cl)cccc1-c1cccc(OCC2CCCN(CCC(F)(F)F)C2)c1Cl (stereo not shown) [Example 2065, 5-((2-((((1H-imidazol-4-yl)methyl)amino)methyl)-4-chloro-5-((2′-chloro-2-methyl-3′-((1-(3,3,3-trifluoropropyl)piperidin-3-yl)methoxy)-[1,1′-biphenyl]-3-yl)methoxy)phenoxy)methyl)nicotinonitrile]",28
3,"Cc1c(COc2cc(OCc3cncc(C#N)c3)c(CN(C)Cc3cncnc3)cc2Cl)cccc1-c1cccc(OCCCN2CC[C@@H](O)C2)c1C [Example 2032, (R)-5-((4-chloro-5-((3′-(3-(3-hydroxypyrrolidin-1-yl)propoxy)-2,2′-dimethyl-[1,1′-biphenyl]-3-yl)methoxy)-2-((methyl(pyrimidin-5-ylmethyl)amino)methyl)phenoxy)methyl)nicotinonitrile]",2.5
4,"Cc1c(COc2cc(OCc3cncc(C#N)c3)c(CN(C)CCc3ncn[nH]3)cc2Cl)cccc1-c1cccc(OCCCN2CC[C@@H](O)C2)c1C [Example 2509, (R)-5-((2-(((2-(1H-1,2,4-triazol-5-yl)ethyl)(methyl)amino)methyl)-4-chloro-5-((3′-(3-(3-hydroxypyrrolidin-1-yl)propoxy)-2,2′-dimethyl-[1,1′-biphenyl]-3-yl)methoxy)phenoxy)methyl)nicotinonitrile]",0.2
5,"CCN(Cc1nnn[nH]1)Cc1cc(Cl)c(OCc2cccc(-c3cccc(OCCCN4CC[C@@H](O)C4)c3C)c2C)cc1OCc1cncc(C#N)c1 [Example 1007, (R)-5-((2-((((1H-Tetrazol-5-yl)methyl)(ethyl)amino)methyl)-4-chloro-5-((3′-(3-(3-hydroxypyrrolidin-1-yl)propoxy)-2,2′-dimethyl-[1,1′-biphenyl]-3-yl)methoxy)phenoxy)methyl)nicotinonitrile]",3
6,"Cc1c(COc2cc(OCc3cncc(C#N)c3)c(CN(C)Cc3c[nH]cn3)cc2Cl)cccc1-c1cccc(OCCCN2CCC(O)(CO)CC2)c1Cl [Example 2014, 5-((2-((((1H-imidazol-4-yl)methyl)(methyl)amino)methyl)-4-chloro-5-((2′-chloro-3′-(3-(4-hydroxy-4-(hydroxymethyl)piperidin-1-yl)propoxy)-2-methyl-[1,1′-biphenyl]-3-yl)methoxy)phenoxy)methyl)nicotinonitrile]",0.5
7,"Cc1c(COc2cc(OCc3cncc(C#N)c3)c(CNCc3c[nH]cn3)cc2Cl)cccc1-c1cccc(OCCCN2CC[C@@H](O)C2)c1C [Example 2003, (R)-5-((2-((((1H-imidazol-4-yl)methyl)amino)methyl)-4-chloro-5-((3′-(3-(3-hydroxypyrrolidin-1-yl)propoxy)-2,2′-dimethyl-[1,1′-biphenyl]-3-yl)methoxy)phenoxy)methyl)nicotinonitrile]",7.2
8,"Cc1c(COc2cc(OCc3cncc(C#N)c3)c(CN3CCCCC3c3cc[nH]n3)cc2Cl)cccc1-c1cccc(OCC2CCCN(C)C2)c1Cl (stereo not shown) [Example 1021, 5-((2-((2-(1H-Pyrazol-3-yl)piperidin-1-yl)methyl)-4-chloro-5-((2′-chloro-2-methyl-3′-((1-methyl-piperidin-3-yl)methoxy)-[1,1′-biphenyl]-3-yl)methoxy)phenoxy)methyl)-nicotinonitrile]",1.8
9,"Cc1c(COc2cc(OCc3cncc(C#N)c3)c(CN(C)Cc3ncn[nH]3)cc2Cl)cccc1-c1cccc(OCCCN2CC[C@@H](O)C2)c1C [Example 2006, (R)-5-((2-((((1H-1,2,4-triazol-5-yl)methyl)(methyl)amino)methyl)-4-chloro-5-((3′-(3-(3-hydroxypyrrolidin-1-yl)propoxy)-2,2′-dimethyl-[1,1′-biphenyl]-3-yl)methoxy)phenoxy)methyl)nicotinonitrile]",0.2
10,"Cc1c(COc2cc(OCc3cncc(C#N)c3)c(CN(C)Cc3cc[nH]n3)cc2Cl)cccc1-c1cccc(OCCCN2CC[C@@H](O)C2)c1C [Example 2005, (R)-5-((2-((((1H-pyrazol-3-yl)methyl)(methyl)amino)methyl)-4-chloro-5-((3′-(3-(3-hydroxypyrrolidin-1-yl)propoxy)-2,2′-dimethyl-[1,1′-biphenyl]-3-yl)methoxy)phenoxy)methyl)nicotinonitrile]",2.5

# Results, then the molecule that gave them:
row,IC50 [nM],SMILES
1,0.7,"Cc1c(COc2cc(OCc3cncc(C#N)c3)c(CNCc3csc(N)n3)cc2Cl)cccc1-c1cccc(OCC2CCCN(C)C2)c1Cl (stereo not shown) [Example 2586, 5-((2-((((2-aminothiazol-4-yl)methyl)amino)methyl)-4-chloro-5-((2′-chloro-2-methyl-3′-((1-methylpiperidin-3-yl)methoxy)-[1,1′-biphenyl]-3-yl)methoxy)phenoxy)methyl)nicotinonitrile]"
2,3.3,"Cc1n[nH]c(C)c1CN(C)Cc1cc(Cl)c(OCc2cccc(-c3cccc(OCCCN4CC[C@@H](O)C4)c3C)c2C)cc1OCc1cncc(C#N)c1 [Example 2572, (R)-5-((4-chloro-2-((((3,5-dimethyl-1H-pyrazol-4-yl)methyl)(methyl)amino)methyl)-5-((3′-(3-(3-hydroxypyrrolidin-1-yl)propoxy)-2,2′-dimethyl-[1,1′-biphenyl]-3-yl)methoxy)phenoxy)methyl)nicotinonitrile]"
3,1.9,"Cc1c(COc2cc(OCc3cncc(C#N)c3)c(CNCc3nc4ccccc4[nH]3)cc2Cl)cccc1-c1cccc(OCC2CCCN(C)C2)c1Cl (stereo not shown) [Example 2616, 5-((2-((((1H-benzo[d]imidazol-2-yl)methyl)amino)methyl)-4-chloro-5-((2′-chloro-2-methyl-3′-((1-methylpiperidin-3-yl)methoxy)-[1,1′-biphenyl]-3-yl)methoxy)phenoxy)methyl)nicotinonitrile]"
4,178,"Cc1onc(-c2ccccc2)c1CN(C)Cc1cc(Cl)c(OCc2cccc(-c3cccc(OCCCN4CC[C@@H](O)C4)c3C)c2C)cc1OCc1cncc(C#N)c1 [Example 2523, (R)-5-((4-chloro-5-((3′-(3-(3-hydroxypyrrolidin-1-yl)propoxy)-2,2′-dimethyl-[1,1′-biphenyl]-3-yl)methoxy)-2-((methyl((5-methyl-3-phenylisoxazol-4-yl)methyl)amino)methyl)phenoxy)methyl)nicotinonitrile]"
5,0.2,"Cc1c(COc2cc(OCc3cncc(C#N)c3)c(CNCCc3c[nH]cn3)cc2Cl)cccc1-c1cccc(OCC2CCCN(C)C2)c1Cl (stereo not shown) [Example 2580, 5-((2-(((2-(1H-imidazol-4-yl)ethyl)amino)methyl)-4-chloro-5-((2′-chloro-2-methyl-3′-((1-methylpiperidin-3-yl)methoxy)-[1,1′-biphenyl]-3-yl)methoxy)phenoxy)methyl)nicotinonitrile]"
6,6.5,"Cc1c(COc2cc(OCc3cncc(C#N)c3)c(CNCc3cc4ccccn4n3)cc2Cl)cccc1-c1cccc(OCCCN2CC[C@@H](O)C2)c1C [Example 2537, (R)-5-((4-chloro-5-((3′-(3-(3-hydroxypyrrolidin-1-yl)propoxy)-2,2′-dimethyl-[1,1′-biphenyl]-3-yl)methoxy)-2-(((pyrazolo[1,5-a]pyridin-2-ylmethyl)amino)methyl)phenoxy)methyl)nicotinonitrile]"
